Like-named read-outs stand apart in the source and are kept apart here.
Tests used:
Water solubility = type: physicochemical; details: methanesulfonate salt
approach-behavior = assay: Rhesus Monkey Approach Effects; type: in vivo; details: po; for minimal effective dose: Macaca mulatta, read-out: Approach (monkey) MED
Procedure: (§1) Results given in: mg/kg po/monkey
Rhesus Monkey Approach Effects: Compounds are administered orally to groups of six rhesus monkeys. The behavior of the animals is then evaluated by observational means. […] The MED is the oral dose at which the animals show signs of decreased fear.

[1] = system: approach-avoidance ("conflict") situation; assay: Rat Conflict (Approach-Avoidance) Test; type: in vivo; details: for minimal effective dose: read-out: Conflict (rat) MED
Procedure: Results given in: mg/kg po/rat
Rat Conflict (Approach-Avoidance) Test: Food deprived rats are trained to pass from one compartment to an adjacent one to obtain food. The training consists of three exposures to the test situation on day one of the experiment. The rats are given limited (1-2 hr) free access to food in their home cages on day one and are then food deprived for at least 18 hours. On day two of the experiment, the rats are given a control exposure to the test situation followed by a second exposure after 1/2 to 1 hour in which they are shocked after crossing and eating. Groups of 6-8 rats are then dosed orally with solvent or test compound and then reexposed to the test situation after 1 or 2 hours.
This effect is dose-related (and the MED is the minimum dose at which this effect is obtained); rats dosed with solvent only consistently show a high level of fear as evidenced by decreased mobility and absence of feeding when placed in the test situation after receiving a shock.

[2] = system: Conditioned Avoidance Response; assay: Rat Conditioned Avoidance Response (C.A.R.); type: in vivo; details: po, read-out: C.A.R. (rat) ED50
Procedure: (§2) Results given in: mg/kg po/mouse mg/kg po/rat
(§3) Mouse and Rat Conditioned Avoidance Response: Mice and rats are trained to jump out of a pit onto a ledge to avoid shock when presented with a light and sound conditioned stimulus. The animals are tested 1, 2, and 4 hours after administration of the test compound. Three to 4 dose levels and groups of 4-8 animals/dose are used. The ED50 is the dose producing a block of the C.A.R. in 50% of the animals. Blocking of the C.A.R. at non-toxic doses appears to correlate with major tranquilizer activity in man.

[3] = system: amphetamine hyperactivity; assay: Mouse Anti-Amphetamine Activity (A.A.); type: in vivo; details: po, read-out: A.A. (mouse) ED50
Procedure: (§4) Results given in: mg/kg po/mouse
Mouse Anti-Amphetamine Activity: Groups of 5 mice are given d-amphetamine sulfate 5 mg/kg sc 1 hour after oral administration of graded doses of test compound. The mice are placed in photocell activity units immediately after amphetamine administration and locomotor activity is recorded for 60 minutes. The ED50 is calculated as the dose causing a 50% reduction in locomotor activity relative to the activity of the amphetamine-treated control mice. Amphetamine antagonism at non-toxic doses appears to correlate with major tranquilizer activity in man.

taming = assay: Rhesus Monkey Taming Effects; type: in vivo; details: po; for minimal effective dose: Macaca mulatta, read-out: Taming (monkey) MED
Procedure: as §1
Rhesus Monkey Taming Effects: Compounds are administered orally to groups of six rhesus monkeys. The behavior of the animals is then evaluated by observational means. Taming effects are determined by the ability of the observer to approach and touch the monkey. Compounds with major tranquilizer activity in man can produce a state of passive tameness in the rhesus monkey wherein it can be touched without provoking any of the threatening or aggressive behavior seen in the normal animal. The MED is the minimal oral dose at which some taming effect can be observed.

locomotor activity = assay: Mouse Screen (decrease in locomotor activity); type: in vivo; details: Mus musculus, po, read-out: Screen (mouse) MED
Source text: as §4
Mouse Screen: The minimal effective dose (MED) is the lowest oral dose producing an obvious decrease in locomotor activity, using observational techniques. Groups of 3 mice are given decreasing oral doses at 0.5 log intervals (300, 100, 30 . . . etc.) until no behavioral effects are evident. Decrease of locomotor activity is indicative of general central nervous system depressant activity.

[4] = system: Conditioned Avoidance Response; assay: Dog Conditioned Avoidance Response (C.A.R.); type: in vivo; details: po; for ED50: Canis lupus familiaris, read-out: C.A.R. (dog) ED50
Procedure: Results given in: mg/kg po/dog
Dog Conditioned Avoidance Response: Dogs are trained to raise a forelimb when presented with a conditioned stimulus (light) in order to avoid an electric shock. Blocks of 10 trials are given to groups of four dogs during a pretreatment period and at 1, 2, and 4 hours after oral administration of test compound. The ED50 values are calculated as the dose causing 50% of the animals to show five or more incorrect responses. Blocking of the C.A.R. at non-toxic doses appears to correlate with major tranquilizer activity in man.

[5] = system: Conditioned Avoidance Response; assay: Mouse Conditioned Avoidance Response (C.A.R.); type: in vivo; details: po, read-out: C.A.R. (mouse) ED50
Procedure: as §2, §3

Compound: CS(=O)(=O)O.c1ccc2c(c1)CCc1cccc3c4c(n-2c13)CCN(CC1CC1)C4 [3-(cyclopropylmethyl)-1,2,3,4,8,9-hexahydropyrido[4',3':2,3]indolo[1,7-ab][1]benzazepine methanesulfonate]
- solubility (Water solubility): > 500 mg/mL

Compound: c1ccc2c(c1)CCc1cccc3c4c(n-2c13)CCN(CC1CC1)C4 [No. 3, 3-(cyclopropylmethyl)-1,2,3,4,8,9-hexahydropyrido[4',3':2,3]indolo[1,7-ab][1]benzazepine]
- minimal effective dose (approach-behavior; rhesus monkey): 1 to 3 mg/kg
- minimal effective dose ([1]; po, rat, reexposed after 1 or 2 hours): 10 to 20 mg/kg
- ED50 ([2]; rat, tested 1, 2, and 4 hours after administration): 40 mg/kg
- ED50 ([3]; mouse, d-amphetamine sulfate 5 mg/kg sc 1 hour after compound, 60 minutes recording): 6 mg/kg
- minimal effective dose (taming; rhesus monkey): 3 to 10 mg/kg
- minimal effective dose (locomotor activity): 30 to 100 mg/kg
- ED50 ([4]; dog, 1, 2, and 4 hours after administration): > 20 mg/kg
- ED50 ([5]; mouse, tested 1, 2, and 4 hours after administration): 20 mg/kg

Compound: CN(C)CCCN1c2ccccc2Sc2ccc(Cl)cc21 [chlorpromazine, reference compound]
- Approach (monkey) MED, symbol (approach-behavior; rhesus monkey): I
- Conflict (rat) MED, symbol ([1]; po, rat): I
- ED50 ([2]; Rattus norvegicus, 4 h): 10 mg/kg
- ED50 ([3]; Mus musculus, 1 h): 5 mg/kg
- minimal effective dose (taming): 10 to 30 mg/kg
- minimal effective dose (locomotor activity): 3 to 10 mg/kg
- ED50 ([4]; 4 h): 6 mg/kg
- ED50 ([5]; Mus musculus, 4 h): 5 mg/kg

Compound: CN1C(=O)CN=C(c2ccccc2)c2cc(Cl)ccc21 [diazepam, reference compound]
- minimal effective dose (approach-behavior): 3 to 10 mg/kg
- minimal effective dose ([1]; Rattus norvegicus, po): 3 to 10 mg/kg
- decreased fear in the test animals, in words ([1]; rats cross to obtain food despite earlier shock, dose-related): apparent decreased fear in the test animals
- Taming (monkey) MED, symbol (taming; rhesus monkey): I
- minimal effective dose (locomotor activity): 3 to 10 mg/kg
- C.A.R. (dog) ED50, symbol ([4]; dog): I

Reference: patent US3959300A, “Novel indolobenzazepine derivatives, useful as tranquilizers” (priority 1974, dated 1976)
